Measured values as given in publication PMC4494852, “Microwave-assisted preparation, structural characterization, lipophilicity, and anti-cancer assay of some hydroxycoumarin derivatives” (Monatshefte Fur Chemie, 2014).

Assays:
[1] = Lipophilicity by reversed-phase TLC on RP-18 WF254s plates with standardization; details: for φ 0 (intercept of the trend line with abscissa axis): molar fraction for which lipophilicity equals 0
[2] = known logP of standards; cited from earlier work

Compound	S (slope of the trend line RM vs φ) ([1]; acetonitrile/water)	φ 0 (intercept of the trend line with abscissa axis) ([1]; acetonitrile/water)	S (slope of the trend line RM vs φ) ([1]; dioxane/water)	φ 0 (intercept of the trend line with abscissa axis) ([1]; dioxane/water)	S (slope of the trend line RM vs φ) ([1]; isopropanol/water)	φ 0 (intercept of the trend line with abscissa axis) ([1]; isopropanol/water)	S (slope of the trend line RM vs φ) ([1]; methanol/water)	φ 0 (intercept of the trend line with abscissa axis) ([1]; methanol/water)	R M0 (lipophilicity extrapolated to 100 % water) ([1]; acetonitrile/water)	R M0 (lipophilicity extrapolated to 100 % water) ([1]; dioxane/water)	R M0 (lipophilicity extrapolated to 100 % water) ([1]; isopropanol/water)	R M0 (lipophilicity extrapolated to 100 % water) ([1]; methanol/water)	LogP value [2]
CC(=O)Oc1ccc2c(C)cc(=O)oc2c1 [Compound 10, 7-Acetoxy-4-methylcoumarin]	3.506	0.526	3.3341	0.518	3.436	0.448	2.3174	0.680					
O=[N+]([O-])c1ccccc1O [2-Nitrophenol, 2-nitrophenol, reference compound]	2.5429		2.2497		2.9639		1.9676		1.1246	1.0657	1.2375	1.0469	
c1ccc(Cc2ccccc2)cc1 [Diphenylmethane, diphenylmethane, reference compound]	5.2957		5.0853		6.2485		4.067						4.14
Nc1ccc(Cl)cc1Cl [2,4-Dichloroaniline, 2,4-dichloroaniline, reference compound]	3.3029		3.3036		4.2876		2.7739		1.8609	2.0135	2.1269	1.8895	2.91
CC(=O)Oc1cc(C)cc2oc(=O)cc(C)c12 [Compound 2a, 5-acetoxy-4,7-dimethylcoumarin]	3.6418	0.481	3.2936	0.474	3.8312	0.424	2.5335	0.642					
Cc1cc(=O)oc2cc(O)ccc12 [Compound 8, 7-hydroxy-4-methylcoumarin]	2.5539	0.382	2.2314	0.409	2.0405	0.372	2.0525	0.567					
O=c1ccc2ccc(O)cc2o1 [Compound 7, umbelliferone]	2.0876	0.346	1.8746	0.356	1.6695	0.309	1.9022	0.506	0.7232	0.6676	0.5162	0.9623	
CC(=O)c1c(O)ccc2c(C)cc(=O)oc12 [Compound 9, 8-Acetyl-7-hydroxy-4-methylcoumarin]	3.0614	0.464	3.2472	0.508	2.6277	0.446	2.5967	0.697					
c1ccc(Nc2ccccc2)cc1 [Diphenylamine, diphenylamine, reference compound]	4.1309		3.8375		4.6873		2.9469						
O=C(c1ccccc1)c1ccccc1 [Benzophenone, benzophenone, reference compound]	4.1335		3.6381		4.4575		3.2945						
CC(=O)Nc1ccc(Cl)c(Cl)c1 [3,4-Dichloroacetanilide, reference compound]	3.5551		3.0847		4.1116		2.4827						2.96
O=C1Nc2ccccc2C1=O [Isatine, isatine, reference compound]	2.0278		1.2132		2.0065		1.4786		0.7435	0.3418	0.5885	0.6009	0.83
CC(=O)c1cc2c(C)cc(=O)oc2cc1O [Compound 11, 6-Acetyl-7-hydroxy-4-methylcoumarin]	2.9356	0.425	2.5162	0.409	2.8074	0.362	1.8855	0.526					
